In patent US20210401791A1, “METHODS AND COMPOSITIONS FOR REDUCING ALCOHOL TOXICITY” (THE JOHNS HOPKINS UNIVERSITY, priority 2011, published 2021):
“Also recorded” adds a separate entry of the source. Read-outs that look alike come from different tables or passages of the source. One block for each molecule: values may come before it.

Tests used:
Aldh3a1 [1] = assay: mRNA expression of Aldh3a1 in Hepa1c1c7 cells (real-time PCR); format: cell-based, mouse; settings: 24 hours, SF 1 or 3 μM, TP-225 0.003 or 0.01 μM, BNF 0.3 or 1 μM
Procedure: Total RNA was extracted from Hepa1c1c7 cells that had been exposed to serial dilutions of inducers for 24 h, or from RNA-stabilized tissues (stored in TRizol) from mice, followed by reverse transcription into cDNA. The cDNA was subjected to quantitative real-time PCR analysis by using SYBR Green fluorescence with 7000 Sequence Detection System. […] Relative expressions of individual mRNAs for ALDH were normalized to β-actin as an endogenous control, and the expression rate was calculated using the comparative ΔΔCt method.

[2] = 20 μmol SF/3 g diet/day 1 week, then 2.0 g/kg ethanol oral
Procedure: (§1) After fasting overnight, they were gavaged with 35% (v/v) ethanol solution at a dose of 2.0 g/kg. Before, and 0.5, 1, 2, 3, 4, and 6 h after administration of ethanol, 20 μL of blood were collected by nicking the tail vein. The mice were then euthanized and their blood, liver, stomach and upper intestine were collected.
(§2) Blood ethanol and acetaldehyde levels in mice were determined enzymatically by modification of the method of Tottmar et al. (Tottmar 1978). Whole blood samples (20 μL) were obtained by repeated incisions of mouse tail veins. The blood was immediately mixed with 200 μL of 4% (v/v) perchloric acid (PCA) in sealed tubes at 4° C., incubated for 10 min, and then centrifuged at 3000×g for 10 min. The pH values of the supernatant fractions were adjusted to 7.5-8.0 by adding 20 μL of 3 M K2CO3 in new tubes. After removing precipitated KClO4 by centrifugation at 3000×g for 10 min, supernatant fractions were stored in sealed tubes at 4° C. until assayed.

Aldh1a1 = settings: liver, SF diet 1 week
Procedure: (§3) All animal experiments were performed in compliance with National Institute of Health Guidelines and those of Animal Care and Use Committee of the Johns Hopkins University. […] After 1 week on these diets, mice were euthanized and their liver, forestomach, glandular stomach, and upper small intestine were harvested, frozen in liquid nitrogen, and stored at −80° C. until analyzed. A small portion of each tissue was stored in RNA stabilizing solution at 4° C. until total RNA extraction.
(§4) Total RNA was extracted from Hepa1c1c7 cells that had been exposed to serial dilutions of inducers for 24 h, or from RNA-stabilized tissues (stored in TRizol) from mice, followed by reverse transcription into cDNA. The cDNA was subjected to quantitative real-time PCR analysis by using SYBR Green fluorescence with 7000 Sequence Detection System. All primers used in this study were designed based on previous reports. Relative expressions of individual mRNAs for ALDH were normalized to β-actin as an endogenous control, and the expression rate was calculated using the comparative ΔΔCt method.

Aldh3a1 [3] = settings: SF diet 1 week
Procedure: as §3, §4

Aldh2 = settings: liver, SF diet 1 week
Procedure: as §3, §4

ALDH in Nrf2−/− MEFs = settings: stepwise concentration of SF, 48 h
Procedure: (§5) All cell lines were grown in 5% CO2 at 37° C. Murine hepatoma cell line, Hepa1c1c7 was cultured in α-MEM supplemented with 10% (v/v) heat inactivated FBS. Mouse embryo fibroblasts (MEFs) derived from day 13.5 embryos of wild-type or Nrf2-knockout C57BL/6 mice were cultured in Iscoves Modified Dulbecco's Medium (with L-glutamine) supplemented with human recombinant epidermal growth factor (10 ng/mL), 1× insulin/transferring/selenium, and 10% (v/v) heat-inactivated FBS.
(§6) To determine total ALDH activity, Hepa1c1c7 or MEF cells were plated into 6-cm plates at 6.0×10^5 or 1.2×10^6 cells/plate, incubated for 24 h at 37° C. in a 5% CO2 atmosphere, and then treated with serial dilutions of inducers. The inducers were dissolved in acetonitrile or DMSO and added to medium so that final concentrations of the solvents was less than 0.5 or 0.1% v/v, respectively. […] ALDH activity was measured fluorimetrically in 96-well plates (white-walled) by modification of the method of Koivula et al. (1975). […] The initial velocity of NADH generation was measured (λex 340 nm and λem 460 nm) at 25° C. for 10 min in a micro-plate fluorometer. Blank reaction rates without propionaldehyde were also determined. The ALDH velocity was normalized to the protein concentration and expressed as a change in fluorescent units per min per mg of protein.

ALDH in WT MEFs = settings: stepwise concentration of SF, 48 h
Procedure: as §5, §6

[4] = human research studies; cited from earlier work
ALDH [5] = settings: 1 week; for Cytosolic/microsomal and mitochondrial ALDH activities, fold above control: glandular-stomach
Procedure: as §3
To determine total ALDH activity, Hepa1c1c7 or MEF cells were plated into 6-cm plates at 6.0×10^5 or 1.2×10^6 cells/plate, incubated for 24 h at 37° C. in a 5% CO2 atmosphere, and then treated with serial dilutions of inducers. The inducers were dissolved in acetonitrile or DMSO and added to medium so that final concentrations of the solvents was less than 0.5 or 0.1% v/v, respectively. After 48 h of treatment, cells were washed twice with PBS, scraped from the plates, and homogenized in micro-homogenizers at 4° C. The homogenates were centrifuged at 5,000×g for 15 min at 4° C. and the supernatant fractions were collected. ALDH activity was measured fluorimetrically in 96-well plates (white-walled) by modification of the method of Koivula et al. (1975). The assay mixture (190 μL) contained 70 mM sodium pyrophosphate buffer (pH 8.0), 1.67 mM pyrazole, 1.33 mM NAD, and supernatant fraction. The assay was started by addition of 10 μL of 90 mM propionaldehyde, bringing the total volume to 200 μL. The initial velocity of NADH generation was measured (λex 340 nm and λem 460 nm) at 25° C. for 10 min in a micro-plate fluorometer. Blank reaction rates without propionaldehyde were also determined. The ALDH velocity was normalized to the protein concentration and expressed as a change in fluorescent units per min per mg of protein.
To determine ALDH activities of cytosolic/microsomal and mitochondrial fractions individually, cells or harvested tissues were homogenized at 4° C. in 10 mM Tris-HCl (pH 7.4) containing 0.25 M sucrose and 1 mM 2-mercaptoethanol and centrifuged at 750×g for 15 min to remove nuclei and cell debris. Supernatant fractions were then centrifuged twice at 12,000×g for 20 min to obtain the cytosolic/microsomal and the precipitated mitochondrial fractions. Mitochondrial fractions were suspended in 0.25 M sucrose, diluted with one-half volume of 1% sodium bicarbonate containing 1% sodium deoxycholate (w/v), and sonicated in a Branson Sonicator at 4° C. for five (5) 2-minute periods for a total of 10 min before assays.

[6] = Procedure: as §1, §2
Determination of acetaldehyde was performed in 10 mm quarts fluorescence cuvettes in a final volume of 2.33 mL assay mixture containing of assay mixture containing 50 mM sodium pyrophosphate (pH 8.8), 0.1 mM pyrazole, 0.1 mM NAD and 0.2 units/mL of purified ALDH (potassium activated from baker's yeast) with a luminescence spectrophotometer. Before and 5 min after addition of 170 μL of the supernatant, intensities were monitored (λex: 340 nm and λem: 460 nm). The acetaldehyde level in blood was calculated from change of intensity using acetaldehyde standard curve with range from 1.56 to 50 μM in blood. The standard curve was made by applying serial dilution of acetaldehyde to PCA treatment process same as blood.

NQO1 [7] = settings: liver, both parts of stomach, upper intestine; high dose 20 μmol SF/3 g diet/day, 1 week
Procedure: as §3

[8] = 5 or 20 μmol SF/3 g diet/day, 1 week
Procedure: as §3

glutathione = settings: intake of SF; cited from earlier work
ALDH [9] = assay: Total ALDH activity in Hepa1c1c7 cell homogenates (propionaldehyde substrate, fluorimetric); format: cell-based, mouse
Procedure: To determine total ALDH activity, Hepa1c1c7 or MEF cells were plated into 6-cm plates at 6.0×10^5 or 1.2×10^6 cells/plate, incubated for 24 h at 37° C. in a 5% CO2 atmosphere, and then treated with serial dilutions of inducers. The inducers were dissolved in acetonitrile or DMSO and added to medium so that final concentrations of the solvents was less than 0.5 or 0.1% v/v, respectively. […] The assay was started by addition of 10 μL of 90 mM propionaldehyde, bringing the total volume to 200 μL. […] Blank reaction rates without propionaldehyde were also determined.

NQO1 [10] = assay: NQO1 activity in Hepa1c1c7 cells (Prochaska assay, menadione substrate); format: cell-based, mouse; settings: 48 h
Procedure: The lysates of Hepa1c1c7 cells which were plated in 96-well plates at 10^4 cells per well, grown for 24 h, and then exposed to serial dilutions of inducers for 48 h.

[11] = liver, high dose 20 μmol SF/3 g diet/day

Structure (SMILES): O=c1cc(-c2ccccc2)oc2ccc3ccccc3c12 [BNF]
Aldh3a1 mRNA expression, fold increase (Aldh3a1 [1]): ~5 fold

Food intakes vs control group [8]: no significant differences
Structure (SMILES): C[S@@+]([O-])CCCCN=C=S [SF, 1-isothiocyanato-4R-(methylsulfinyl)butane]
AUC of blood ethanol vs control [2]: no significant difference | Effect on blood ethanol level ([2]; only in descending phase): slightly affected | Aldh1a1 expression level, fold increase (Aldh1a1): 2.5 fold | Aldh3a1 expression, fold increase (Aldh3a1 [3]; forestomach): 3 fold | Aldh3a1 expression, fold increase (Aldh3a1 [3]; glandular stomach): 6.5 fold | Aldh2 expression level, fold increase (Aldh2): 1.8 fold | Aldh3a1 mRNA expression, fold increase (Aldh3a1 [1]): ~5 fold | Effect on total ALDH activity (ALDH in Nrf2−/− MEFs): altogether absent | Effect on total ALDH activity (ALDH in WT MEFs): increased in a dose dependent manner | Adverse effects on administration [4]: not shown any significant adverse effects | Cytosolic/microsomal and mitochondrial ALDH activities, fold above control (ALDH [5]; (high) 20 μmol SF/3 g diet/day): 5.1 fold | Cytosolic/microsomal and mitochondrial ALDH activities, fold above control (ALDH [5]; (low) 5 μmol SF/3 g diet/day): 4.1 fold | Cytosolic/microsomal ALDH activity, fold increase (ALDH [5]; [11]): 1.4 fold | Mitochondrial ALDH activity, fold increase (ALDH [5]; [11]): 1.5 fold | AUC of blood acetaldehyde ([6]; 20 μmol SF/3 g diet/day 1 week, then 2.0 g/kg ethanol oral, control 83.8±6.1): 54.5 ± 5.1 µmol·h/L | Effect on blood acetaldehyde levels ([6]; 20 μmol SF/3 g/day 1 week, then 2.0 g/kg ethanol oral (FIG. 9)): remarkably lowered | Acetaldehyde elimination constant relative to control mice ([6]; SF-fed mice): roughly 2 times | Prevention of increase in blood acetaldehyde level ([6]; ascending phase, 20 μmol SF/3 g diet/day 1 week, then 2.0 g/kg ethanol oral): 30% | Elimination rate constant k of blood acetaldehyde ([6]; first order model, SF fed mice, control 0.21±0.02, p<0.01): 0.40 ± 0.03 h⁻¹ | Initial blood level C0 of acetaldehyde ([6]; first order model, SF fed mice, control 28.62±2.1, NS): 32.38 ± 2.4 µM | NQO1 activity, fold increase compared to control (NQO1 [7]): ≤ 2.2 fold | Body weights vs control group [8]: no significant differences | Glutathione levels in liver (glutathione): increased glutathione levels in liver | Total ALDH activity, fold above control levels (ALDH [9]; 3 μM SF, additional 6 hours after first 12 h): 1.5 fold | Total ALDH activity, fold above control levels (ALDH [9]; 3 μM SF, additional 12 hours after first 12 h): 1.9 fold | Total ALDH activity, fold above control levels (ALDH [9]; 3 μM SF, additional 24 hours after first 12 h): 2.1 fold | Total ALDH activity vs control (ALDH [9]; 3 μM SF, first 12 h): not increased | Concentration at which significant effects on total ALDH activity were observed (ALDH [9]; Hepa1c1c7 cells, 48 hours treatment): ≥ 0.3 µM | Effect on total ALDH activity (ALDH [9]; Hepa1c1c7 cells, serial concentrations, 48 h): dramatically and dose dependently increased; also recorded: increased total ALDH activity in Hepa1c1c7 cells in a dose dependent manner | Treatment time after which total ALDH activity increased (ALDH [9]; time course measurement, treatment with SF): 12 to 18 h

Structure (SMILES): CC1(C)CC[C@]2(C#N)CC[C@]3(C)[C@H](C(=O)C=C4[C@@]5(C)C=C(C#N)C(=O)C(C)(C)[C@@H]5CC[C@]43C)[C@@H]2C1 [TP-225]
CD value (concentration required to double the enzyme activity) for induction of NQO1 (NQO1 [10]): 0.00038 µM | Aldh3a1 mRNA expression, fold increase (Aldh3a1 [1]): ~5 fold | CD value (concentration required to double the enzyme activity) for induction of ALDH (ALDH [9]; Hepa1c1c7 cells, 48 h): 0.0016 µM

Structure (SMILES): Oc1ccc(C=Cc2cc(O)cc(O)c2)cc1 [resveratrol, reference compound]
CD value (concentration required to double the enzyme activity) for induction of NQO1 (NQO1 [10]): > 50 µM | CD value (concentration required to double the enzyme activity) for induction of ALDH (ALDH [9]; Hepa1c1c7 cells, 48 h): 120.7 µM
